# Experimental data from patent publication US20150141336A1, “Pancreatic Peptide Compounds and Use” (Novo Nordisk A/S, priority 2012, published 2015).
# Numbered stars: 1 amine (or outer) side, 2 acyl side, 3 side chain; on linkers, the order of the positions; unused ones are H or OH. Side chains are listed from the residue outwards. Peptide text beside a SMILES is read from it. * marks the point of attachment. C18 diacid = O=C(O)CCCCCCCCCCCCCCCCC(=O)*; γGlu = O=C(O)[C@H](CCC(=O)[*:2])N[*:1]; AEEA = NCCOCCOCC(=O)O
# Test: Assay (II) PK i.v. minipig, in vivo half-life
# Set-up: species or system Göttingen mini-pigs
# Conditions: male, Göttingen, minipig, iv, Half-life minipig, Assay (II)
# Summary of the method: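 Male Göttingen mini-pigs (18–22 kg, n=5) received 6 nmol/kg i.v. via central catheter, formulated in 50 mM K2HPO4, 0.05% tween 80, pH 8.0. EDTA plasma sampled pre-dose to 240 h, quantified by TFC/LC/MS/MS (MRM, range 1-2000 nmol/l); half-life from non-compartmental analysis per animal.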
row,SMILES,half-life [h]
1,CC[C@H](C)[C@H](NC(=O)[C@H](Cc1ccc(O)cc1)NC(=O)[C@H](CCCNC(=N)N)NC(=O)[C@H](CCCNC(=N)N)NC(=O)[C@H](CC(C)C)NC(=O)[C@H](CC(=O)O)NC(=O)[C@H](C)NC(=O)[C@H](C)NC(=O)[C@H](Cc1ccc(O)cc1)NC(=O)[C@H](CCCCNC(=O)COCCOCCNC(=O)COCCOCCNC(=O)CC[C@H](NC(=O)CCCCCCCCCCCCCCCCC(=O)O)C(=O)O)NC(=O)[C@H](C)NC(=O)[C@H](CCSC)NC(=O)[C@H](CCC(N)=O)NC(=O)[C@H](CCC(=O)O)NC(=O)[C@@H]1CCCN1C(=O)[C@@H](NC(=O)[C@H](C)NC(=O)[C@H](CC(N)=O)NC(=O)[C@H](CC(=O)O)NC(=O)CNC(=O)[C@@H]1CCCN1C(=O)[C@H](Cc1ccc(O)cc1)NC(=O)[C@@H](NC(=O)[C@@H]1CCCN1C(=O)[C@H](CCC(=O)O)NC(=O)[C@@H](N)CC(C)C)C(C)C)[C@@H](C)O)C(=O)N[C@@H](CC(N)=O)C(=O)N[C@@H](CCSC)C(=O)N[C@@H](CC(C)C)C(=O)N[C@H](C(=O)N[C@@H](CCCNC(=N)N)C(=O)N1CCC[C@H]1C(=O)N[C@@H](CCCNC(=N)N)C(=O)N[C@@H](Cc1ccc(O)cc1)C(N)=O)[C@@H](C)O [Compound AW] (H-LEPVYPGDNATPEQMAK([AEEA-AEEA-γGlu-C18 diacid])YAADLRRYINMLTRPRY-NH2; N-terminus and C-terminus assumed),33
2,CC[C@H](C)[C@H](NC(=O)[C@H](Cc1ccc(O)cc1)NC(=O)[C@H](CCCNC(=N)N)NC(=O)[C@H](CCCNC(=N)N)NC(=O)[C@H](CC(C)C)NC(=O)[C@H](CC(=O)O)NC(=O)[C@H](C)NC(=O)[C@H](C)NC(=O)[C@H](Cc1ccc(O)cc1)NC(=O)[C@H](CCC(N)=O)NC(=O)[C@H](C)NC(=O)[C@H](CCCCNC(=O)COCCOCCNC(=O)COCCOCCNC(=O)CC[C@H](NC(=O)CCCCCCCCCCCCCCCCC(=O)O)C(=O)O)NC(=O)[C@H](CCC(N)=O)NC(=O)[C@H](CCC(=O)O)NC(=O)[C@@H]1CCCN1C(=O)[C@@H](NC(=O)[C@H](C)NC(=O)[C@H](CC(N)=O)NC(=O)[C@H](CC(=O)O)NC(=O)CNC(=O)[C@@H]1CCCN1C(=O)[C@H](Cc1ccc(O)cc1)NC(=O)[C@@H](NC(=O)[C@@H]1CCCN1C(=O)[C@H](CCC(=O)O)NC(=O)[C@H](CC(C)C)NC(=O)[C@@H]1CCCN1)C(C)C)[C@@H](C)O)C(=O)N[C@@H](CC(N)=O)C(=O)N[C@@H](CCSC)C(=O)N[C@@H](CC(C)C)C(=O)N[C@H](C(=O)N[C@@H](CCCNC(=N)N)C(=O)N1CCC[C@H]1C(=O)N[C@@H](CCCNC(=N)N)C(=O)N[C@@H](Cc1ccc(O)cc1)C(N)=O)[C@@H](C)O [Compound Q] (H-PLEPVYPGDNATPEQK([AEEA-AEEA-γGlu-C18 diacid])AQYAADLRRYINMLTRPRY-NH2; N-terminus and C-terminus assumed),56
3,CC[C@H](C)[C@H](NC(=O)[C@H](Cc1ccc(O)cc1)NC(=O)[C@H](CCCNC(=N)N)NC(=O)[C@H](CCCNC(=N)N)NC(=O)[C@H](CC(C)C)NC(=O)[C@H](CC(=O)O)NC(=O)[C@H](C)NC(=O)[C@H](C)NC(=O)[C@H](Cc1ccc(O)cc1)NC(=O)[C@H](CCC(N)=O)NC(=O)[C@H](C)NC(=O)[C@H](CCSC)NC(=O)[C@H](CCC(N)=O)NC(=O)[C@H](CCC(=O)O)NC(=O)[C@@H]1CCCN1C(=O)[C@@H](NC(=O)[C@H](C)NC(=O)[C@H](CC(N)=O)NC(=O)[C@H](CC(=O)O)NC(=O)CNC(=O)[C@H](CCCCNC(=O)COCCOCCNC(=O)COCCOCCNC(=O)CC[C@H](NC(=O)CCCCCCCCCCCCCCCCC(=O)O)C(=O)O)NC(=O)[C@H](Cc1ccc(O)cc1)NC(=O)[C@@H](NC(=O)[C@@H]1CCCN1C(=O)[C@H](CCC(=O)O)NC(=O)[C@@H](N)CC(C)C)C(C)C)[C@@H](C)O)C(=O)N[C@@H](CC(N)=O)C(=O)N[C@@H](CCSC)C(=O)N[C@@H](CC(C)C)C(=O)N[C@H](C(=O)N[C@@H](CCCNC(=N)N)C(=O)N1CCC[C@H]1C(=O)N[C@@H](CCCNC(=N)N)C(=O)N[C@@H](Cc1ccc(O)cc1)C(N)=O)[C@@H](C)O [Compound BH],10
4,CC[C@H](C)[C@H](NC(=O)[C@H](Cc1ccc(O)cc1)NC(=O)[C@H](CCCNC(=N)N)NC(=O)[C@H](CCCNC(=N)N)NC(=O)[C@H](CC(C)C)NC(=O)[C@H](CC(=O)O)NC(=O)[C@H](C)NC(=O)[C@H](C)NC(=O)[C@H](Cc1ccc(O)cc1)NC(=O)[C@H](CCC(N)=O)NC(=O)[C@H](C)NC(=O)[C@H](CCSC)NC(=O)[C@H](CCC(N)=O)NC(=O)[C@H](CCC(=O)O)NC(=O)[C@@H]1CCCN1C(=O)[C@@H](NC(=O)[C@H](C)NC(=O)[C@H](CC(N)=O)NC(=O)[C@H](CC(=O)O)NC(=O)CNC(=O)[C@@H]1CCCN1C(=O)[C@H](Cc1ccc(O)cc1)NC(=O)[C@@H](NC(=O)[C@@H]1CCCN1C(=O)[C@H](CCC(=O)O)NC(=O)[C@H](CC(C)C)NC(=O)[C@@H]1CCCN1)C(C)C)[C@@H](C)O)C(=O)N[C@@H](CC(N)=O)C(=O)N[C@@H](CCSC)C(=O)N[C@@H](CC(C)C)C(=O)N[C@H](C(=O)N[C@@H](CCCNC(=N)N)C(=O)N[C@@H](CCCCNC(=O)COCCOCCNC(=O)COCCOCCNC(=O)CC[C@H](NC(=O)CCCCCCCCCCCCCCCCC(=O)O)C(=O)O)C(=O)N[C@@H](CCCNC(=N)N)C(=O)N[C@@H](Cc1ccc(O)cc1)C(N)=O)[C@@H](C)O [Compound A] (H-PLEPVYPGDNATPEQMAQYAADLRRYINMLTRK([AEEA-AEEA-γGlu-C18 diacid])RY-NH2; N-terminus and C-terminus assumed),99
5,CC[C@H](C)[C@H](NC(=O)[C@H](CCCCNC(=O)COCCOCCNC(=O)COCCOCCNC(=O)CC[C@H](NC(=O)CCCCCCCCCCCCCCCCC(=O)O)C(=O)O)NC(=O)[C@H](CCCNC(=N)N)NC(=O)[C@H](CCCNC(=N)N)NC(=O)[C@H](CC(C)C)NC(=O)[C@H](CC(=O)O)NC(=O)[C@H](C)NC(=O)[C@H](C)NC(=O)[C@H](Cc1ccc(O)cc1)NC(=O)[C@H](CCC(N)=O)NC(=O)[C@H](C)NC(=O)[C@H](CCSC)NC(=O)[C@H](CCC(N)=O)NC(=O)[C@H](CCC(=O)O)NC(=O)[C@@H]1CCCN1C(=O)[C@@H](NC(=O)[C@H](C)NC(=O)[C@H](CC(N)=O)NC(=O)[C@H](CC(=O)O)NC(=O)CNC(=O)[C@@H]1CCCN1C(=O)[C@H](Cc1ccc(O)cc1)NC(=O)[C@@H](NC(=O)[C@@H]1CCCN1C(=O)[C@H](CCC(=O)O)NC(=O)[C@@H](N)CC(C)C)C(C)C)[C@@H](C)O)C(=O)N[C@@H](CC(N)=O)C(=O)N[C@@H](CCSC)C(=O)N[C@@H](CC(C)C)C(=O)N[C@H](C(=O)N[C@@H](CCCNC(=N)N)C(=O)N1CCC[C@H]1C(=O)N[C@@H](CCCNC(=N)N)C(=O)N[C@@H](Cc1ccc(O)cc1)C(N)=O)[C@@H](C)O [Compound AO] (H-LEPVYPGDNATPEQMAQYAADLRRK([AEEA-AEEA-γGlu-C18 diacid])INMLTRPRY-NH2; N-terminus and C-terminus assumed),44

# Now from value to molecule:
row,half-life [h],SMILES
1,34,CC[C@H](C)[C@H](NC(=O)[C@H](Cc1ccc(O)cc1)NC(=O)[C@H](CCCNC(=N)N)NC(=O)[C@H](CCCNC(=N)N)NC(=O)[C@H](CC(C)C)NC(=O)[C@H](CC(=O)O)NC(=O)[C@H](CCCCNC(=O)COCCOCCNC(=O)COCCOCCNC(=O)CC[C@H](NC(=O)CCCCCCCCCCCCCCCCC(=O)O)C(=O)O)NC(=O)[C@H](C)NC(=O)[C@H](Cc1ccc(O)cc1)NC(=O)[C@H](CCC(N)=O)NC(=O)[C@H](C)NC(=O)[C@H](CCSC)NC(=O)[C@H](CCC(N)=O)NC(=O)[C@H](CCC(=O)O)NC(=O)[C@@H]1CCCN1C(=O)[C@@H](NC(=O)[C@H](C)NC(=O)[C@H](CC(N)=O)NC(=O)[C@H](CC(=O)O)NC(=O)CNC(=O)[C@@H]1CCCN1C(=O)[C@H](Cc1ccc(O)cc1)NC(=O)[C@@H](NC(=O)[C@@H]1CCCN1C(=O)[C@H](CCC(=O)O)NC(=O)[C@@H](N)CC(C)C)C(C)C)[C@@H](C)O)C(=O)N[C@@H](CC(N)=O)C(=O)N[C@@H](CCSC)C(=O)N[C@@H](CC(C)C)C(=O)N[C@H](C(=O)N[C@@H](CCCNC(=N)N)C(=O)N1CCC[C@H]1C(=O)N[C@@H](CCCNC(=N)N)C(=O)N[C@@H](Cc1ccc(O)cc1)C(N)=O)[C@@H](C)O [Compound AT] (H-LEPVYPGDNATPEQMAQYAK([AEEA-AEEA-γGlu-C18 diacid])DLRRYINMLTRPRY-NH2; N-terminus and C-terminus assumed)
2,29,CC[C@H](C)[C@H](NC(=O)[C@H](Cc1ccc(O)cc1)NC(=O)[C@H](CCCNC(=N)N)NC(=O)[C@H](CCCNC(=N)N)NC(=O)[C@H](CC(C)C)NC(=O)[C@H](CC(=O)O)NC(=O)[C@H](C)NC(=O)[C@H](C)NC(=O)[C@H](Cc1ccc(O)cc1)NC(=O)[C@H](CCC(N)=O)NC(=O)[C@H](C)NC(=O)[C@H](CCSC)NC(=O)[C@H](CCC(N)=O)NC(=O)[C@H](CCC(=O)O)NC(=O)[C@@H]1CCCN1C(=O)[C@@H](NC(=O)[C@H](C)NC(=O)[C@H](CC(N)=O)NC(=O)[C@H](CC(=O)O)NC(=O)CNC(=O)[C@@H]1CCCN1C(=O)[C@H](Cc1ccc(O)cc1)NC(=O)[C@H](CCCCNC(=O)COCCOCCNC(=O)COCCOCCNC(=O)CC[C@H](NC(=O)CCCCCCCCCCCCCCCCC(=O)O)C(=O)O)NC(=O)[C@@H]1CCCN1C(=O)[C@H](CCC(=O)O)NC(=O)[C@@H](N)CC(C)C)[C@@H](C)O)C(=O)N[C@@H](CC(N)=O)C(=O)N[C@@H](CCSC)C(=O)N[C@@H](CC(C)C)C(=O)N[C@H](C(=O)N[C@@H](CCCNC(=N)N)C(=O)N1CCC[C@H]1C(=O)N[C@@H](CCCNC(=N)N)C(=O)N[C@@H](Cc1ccc(O)cc1)C(N)=O)[C@@H](C)O [Compound BJ]
